These results are taken from article PMC9965221, “Antiviral Mechanism of Virucidal Sialic Acid Modified Cyclodextrin” (Pharmaceutics, 2023).

Where only a bound is given, the exact number is not on record here.

This assay has as its target T1, recombinant HA (A/California/04/2009, Met1-Gln549) (Influenza A virus (A/California/04/2009(H1N1)), UniProt C3W5S1).
T1 construct: Met1-Gln549, His-tagged recombinant, immobilised on anti-His probes
It is filed as binding.

T1 sequence (C3W5S1 entry or part of it, added parts left off): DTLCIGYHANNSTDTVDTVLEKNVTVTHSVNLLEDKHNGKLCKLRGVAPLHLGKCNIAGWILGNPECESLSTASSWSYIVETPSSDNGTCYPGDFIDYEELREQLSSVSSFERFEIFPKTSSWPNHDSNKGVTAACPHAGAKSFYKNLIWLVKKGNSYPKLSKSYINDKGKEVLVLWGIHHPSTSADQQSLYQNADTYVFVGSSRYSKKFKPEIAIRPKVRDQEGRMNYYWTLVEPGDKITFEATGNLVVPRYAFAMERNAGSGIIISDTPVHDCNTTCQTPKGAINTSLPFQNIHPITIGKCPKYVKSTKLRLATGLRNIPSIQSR

Turning to `CC(=O)N[C@H]1[C@H]([C@H](O)[C@H](O)CO)O[C@@](OC[C@H]2O[C@@H](O[C@H]3[C@H](O)[C@@H](NC(C)=O)C(O)O[C@@H]3CO)[C@H](O)[C@@H](O)[C@H]2O)(C(=O)O)C[C@@H]1O` (stereo partly shown) [6′SLN], the Kd is > 5 mM.

The Kd is the equilibrium constant for the complex coming apart.
